Laboratory results taken from patent US20260218197A1, “EXTRACELLULAR VESICLE SECRETION REDUCING AGENT FOR REDUCING EXTRACELLULAR VESICLE SECRETION, AND USE OF THE SAME” (THEORIA SCIENCE INC., priority 2020, published 2026).

Legend:
[1] = system: colorectal cancer cells HCT116; assay: Amount of secreted EVs by the ExoScreen method; format: cell-based, human; conditions: HCT116 transformants, CMs and EV fractions, compared with transformants (NC)
Procedure: (§1) EV detection was performed using an AlphaLISA reagent (Perkin Elmer) composed of AlphaScreen streptavidin-coated donor beads (6760002), AlphaLISA unconjugated acceptor beads (6062011), and an AlphaLISA universal buffer (AL001F), a 96-well half-area white plate (6005560, Perkin Elmer), and a detection device EnSpire Alpha 2300 Mutilabel plate reader (Perkin Elmer). Specifically, the EV detection was performed as follows. Each well of the plate was filled with 5 μL of EVs or 10 μL of CM (cell culture supernatant), 10 μL of a 5 nmol/L biotinylated antibody solution prepared using the above-described buffer, and 10 μL of 50 µg/mL AlphaLISA acceptor bead-conjugated antibody. […] Next, luminescence in the wells of the plate was measured using the detection device with the excitation wavelength set to 680 nm and the emission detection wavelength set to 615 nm. […]
(§2) In a 6-well plate, 2 mL of the cancer cell suspension was seeded at 1.0×10^5 cells/well and incubated for 24 hours. […] 48 hours after the replacement, total RNA was extracted, and the expression of the gene of interest was measured by qPCR.
(§3) Colorectal cancer cells HCT116 and lung cancer cells A549 were each transfected with miR-891b. […] Then, according to the ExoScreen method described above, the amounts of the secreted EVs were measured by measuring the signal intensities. […]

[2] = system: lung cancer cells A549; assay: Amount of secreted EVs by the ExoScreen method; format: cell-based, human; conditions: A549 transformants, CMs and EV fractions, compared with transformants (NC)
Procedure: as §1, §2, §3

[3] = system: PSAT1; assay: PSAT1 gene (qPCR) and protein (Western blotting) expression in transformants; format: cell-based, human; conditions: HCT116 and A549 transformants
Procedure: In a 6-well plate, 2 mL of the cancer cell suspension was seeded at 1.0×10^5 cells/well and incubated for 24 hours. Thereafter, 10 nmol/L of the intended nucleic acid molecules were added thereto, and the cells were transfected with the nucleic acid molecules using a transfection reagent (product name: DharmaFECT Transfection Reagent 1). The nucleic acid molecules used were the above-described miRNA and the above-described siRNA. After the incubation for 24 hours, the medium was replaced with the above-described advanced RPMI 1640 medium or advanced DMEM medium containing the antibiotic-antimycotic agent and 2 mmol/L-glutamine (Gibco). 48 hours after the replacement, total RNA was extracted, and the expression of the gene of interest was measured by qPCR. […]
First, expression of the PSAT1 gene was detected in the above-described transformants (miR-891b) and the control transformants (NC) therefor. Then, assuming that the expression levels in the transformants (NC) were 1, the relative values of the expression levels in the respective transformants (miR-891b) were determined. […] Also, for the transformants (miR-891b) and the control transformants (NC), the PSAT1 protein expression was detected by Western blotting. As a control, β-actin was also detected. […]

[4] = system: 3′ UTR of the human PSAT1 mRNA; assay: Dual-Luciferase reporter assay with PSAT1 3′ UTR in HEK293 cells; format: cell-based; conditions: 48 hours after transfection
Procedure: Thus, the effect of miR-891b was examined using the wild-type PSAT1 gene in which the above-described 7-base region in the 3′ UTR is the wild-type sequence (SEQ ID NO: 3: AAGTTGC) and a mutant-type PSAT1 gene in which the above-described 7-base region in the 3′ UTR is a mutated sequence (SEQ ID NO: 4: TTCAACG). Specifically, the following experiment was performed. The wild-type PSAT1 gene or the mutant-type PSAT1 gene was subcloned into a plasmid vector psiCHECK2, and human embryonic kidney cells (HEK293 cells) were transfected with this recombinant vector together with miR-891b or the negative control miRNA using Lipofectamine 3000. 48 hours after the transfection, the luciferase activity of the transformants was quantified using a plate reader according to the operating procedure of a Dual-Luciferase Reporter Assay System.
The results obtained are shown in (D) of FIG. 3.

[5] = system: colorectal cancer cells HCT116; assay: CD63 immunofluorescence / coimmunostaining (intracellular EV accumulation); format: cell-based, human; conditions: HCT116 transformants
Procedure: (§4) Colorectal cancer cells HCT116 and lung cancer cells A549 were transfected with siRNA (siPSAT1) in the same manner as in the item (2) in Example A1, and EV biogenesis after PSAT1 silencing was examined. For the respective silenced transformants, CD63 and PSAT1 were examined by immunofluorescence.
(§5) Further, coimmunostaining of the EV marker CD63 and also an early endosome marker EEA1 or a late endosome marker Rab7 was conducted for the PSAT1-silenced transformants. As a result, no overlap was observed between EEA1 and CD63 in either the PSAT1-silenced transformants or the negative control transformants. […] On this account, the CD63 single-positive area was measured based on the intensity. […] This confirmed that EVs had accumulated in the cells.
(§6) Specifically, the test was performed in the following manner. Colorectal cancer cells HCT116 and lung cancer cells A549 were each seeded in a 6-well plate at 1.5×10^5 cells/well (Day 0), and incubated for 24 hours in a medium (DMEM with 10% FBS, 1×anti-anti medium). After the incubation (Day 1), the above-described medium was removed, and thereafter, a serine-deficient medium and an inhibitor solution were added to the wells. The inhibitor solution was prepared by dissolving NCT-503 in DMSO, and the concentration of the inhibitor per well was set to 2.5 μmol/L. Then, after another 48 hours of incubation (Day 3), the medium in the wells was collected and the cells in the wells were counted. As negative controls (NC), the test was performed in the same manner, except that DMSO was added instead of the inhibitor solution.
(§7) EVs accumulated in the cells were analyzed in the following manner. Specifically, the collected cells were immunostained, the CD63 single-positive area was measured based on the fluorescence intensity, and the fluorescence intensity measured in the area was divided by the number of nuclei to determine the amount of EVs accumulated in each cell. On the other hand, secreted EVs were collected from the collected medium and then subjected to the NTA. In the NTA, the amount of secreted EVs was determined as a relative value calculated assuming that the amount of the secreted EVs in the negative control was 1.

[6] = system: lung cancer cells A549; assay: as above; format: cell-based, human; conditions: A549 transformants
Procedure: as §4, §5, §6, §7

Substance: miR-891b: nucleic acid molecule miRNA, SEQ ID NO: 1: GCAACUUACCUGAGUCAUUGA (Product No. 4464066, Ambion) (listed as RNA, chemistry not given here)
- relative value of the amount of secreted EVs (ExoScreen method) [1]: significantly lower
- relative value of the amount of secreted EVs (ExoScreen method) [2]: significantly lower
- PSAT1 protein expression ([3]; Western blotting, vs transformants (NC)): reduced
- PSAT1 gene expression ([3]; relative to transformants (NC)): reduced
- PSAT1 expression level (relative luciferase activity) ([4]; mutated sequence in miR-891b recognition region): did not reduce
- PSAT1 expression level (relative luciferase activity) ([4]; wild-type PSAT1 3′ UTR sequence): significantly reduced
- CD63 (EV marker) in cytoplasm by immunofluorescence [5]: accumulation of CD63
- CD63 (EV marker) in cytoplasm by immunofluorescence [6]: accumulation of CD63
